For the first assay, the system named is Lox-IMVI melanoma cell line. Description: Lox-IMVI anti-proliferative assay (growth inhibition, Cell Titer-Glo). In kind it is cell-based, human. The settings on record: Homo sapiens; IC50 activity level in the cell-based Lox-IMVI anti-proliferative assay; read-out: Activity. Put shortly: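 RPMI/10% FBS; cmpd 0.5 nM–10 μM, 3-fold ×10, duplicate, 0.2% DMSO final; 72 h, 37 °C, 5% CO2. ATP-luminescence readout at t0 and 72 h. IC50 = 50% of DMSO control, 4-parameter logistic fit.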
For the molecule `NC(=O)[C@H]1CC[C@@H](n2c(Nc3c(Cl)cc(F)cc3Cl)nc3cnc(N[C@H]4C[C@H](O)C4)nc32)CC1` [Example 284, (1s,4s)-4-(8-(2,6-dichloro-4-fluorophenylamino)-2-((1r,3r)-3-hydroxycyclobutylamino)-9H-purin-9-yl)cyclohexanecarboxamide], the IC50 is greater than 1000 nM.
In the case of `NC(=O)[C@H]1CC[C@@H](n2c(Nc3c(Cl)cc(Cl)cc3Cl)nc3cnc(N[C@H]4CC[C@H](O)CC4)nc32)CC1` [Example 78, (1s,4s)-4-(2-((1r,4r)-4-hydroxycyclohexylamino)-8-(2,4,6-trichlorophenylamino)-9H-purin-9-yl)cyclohexanecarboxamide], the IC50 is greater than 1000 nM.
For `CC1(C)CC[C@@H](Nc2ncc3nc(Nc4c(F)cccc4Cl)n([C@H]4CC[C@@H](C(N)=O)CC4)c3n2)C[C@H]1O` [Example 384, (1S,4s)-4-(8-(2-chloro-6-fluorophenylamino)-2-((1R,3R)-3-hydroxy-4,4-dimethylcyclohexylamino)-9H-purin-9-yl)cyclohexanecarboxamide], the IC50 was greater than 1000 nM.
Same read-out and setting: with `C[C@@H]1CC[C@@H](Nc2ncc3nc(Nc4ccc(Cl)c(F)c4F)n([C@H]4CC[C@@H](C(N)=O)CC4)c3n2)C[C@H]1O` [Example 357, (1S,4s)-4-(8-(4-chloro-2,3-difluorophenylamino)-2-((1R,3R,4R)-3-hydroxy-4-methylcyclohexylamino)-9H-purin-9-yl)cyclohexanecarboxamide] the figure was greater than 1000 nM; with `NC(=O)[C@H]1CC[C@@H](n2c(Nc3c(F)cc(F)cc3F)nc3cnc(NC4CCC(F)(F)CC4)nc32)CC1` [Example 288, (1s,4s)-4-(2-(4,4-difluorocyclohexylamino)-8-(2,4,6-trifluorophenylamino)-9H-purin-9-yl)cyclohexanecarboxamide], 250 to 500 nM; with `N#Cc1cc(Cl)c(Nc2nc3cnc(NC4CCCC4)nc3n2[C@H]2CC[C@@H](C(N)=O)CC2)c(Cl)c1` [Example 367, (1s,4s)-4-(2-(cyclopentylamino)-8-(2,6-dichloro-4-cyanophenylamino)-9H-purin-9-yl)cyclohexanecarboxamide], less than 250 nM.
`NC(=O)[C@H]1CC[C@@H](n2c(Nc3c(F)cc(F)cc3F)nc3cnc(N[C@@H]4CCOC[C@@H]4F)nc32)CC1` [Example 307, (1S,4s)-4-(2-((3R,4R)-3-fluorotetrahydro-2H-pyran-4-ylamino)-8-(2,4,6-trifluorophenylamino)-9H-purin-9-yl)cyclohexanecarboxamide]: the IC50 is greater than 1000 nM.
Take `NC(=O)[C@H]1CC[C@@H](n2c(Nc3c(Cl)ccc(F)c3F)nc3cnc(NC4CCOCC4)nc32)CC1` [Example 113, (1s,4s)-4-(8-(6-chloro-2,3-difluorophenylamino)-2-(tetrahydro-2H-pyran-4-ylamino)-9H-purin-9-yl)cyclohexanecarboxamide]: the IC50 lay in the range of 500 to 1000 nM.
As to `NC(=O)[C@H]1CC[C@@H](n2c(Nc3c(Cl)cc(Cl)cc3Cl)nc3cnc(N[C@H]4CC[C@H](O)C4)nc32)CC1` [Example 330, (1R,4s)-4-(2-((1S,3S)-3-hydroxycyclopentylamino)-8-(2,4,6-trichlorophenylamino)-9H-purin-9-yl)cyclohexanecarboxamide], the IC50 lay within 500 to 1000 nM.
Take `CC1(C)CC[C@@H](Nc2ncc3nc(Nc4c(F)cc(F)cc4Cl)n([C@H]4CC[C@@H](C(N)=O)CC4)c3n2)C[C@H]1O` [Example 385, (1S,4s)-4-(8-(2-chloro-4,6-difluorophenylamino)-2-((1R,3R)-3-hydroxy-4,4-dimethylcyclohexylamino)-9H-purin-9-yl)cyclohexanecarboxamide]: the IC50 is greater than 1000 nM.
For the molecule `C[C@@H]1CC[C@@H](Nc2ncc3nc(Nc4c(F)cccc4F)n([C@H]4CC[C@@H](C(N)=O)CC4)c3n2)C[C@H]1O` [Example 343, (1S,4s)-4-(8-(2,6-difluorophenylamino)-2-((1R,3R,4R)-3-hydroxy-4-methylcyclohexylamino)-9H-purin-9-yl)cyclohexanecarboxamide], the IC50 is greater than 1000 nM.

The assay is the same for the next values; noted with them: Homo sapiens; Lox-IMVI anti-proliferative assay, IC50 activity level; read-out: Activity.
Regarding `NC(=O)[C@H]1CC[C@@H](n2c(Nc3c(F)cccc3Cl)nc3cnc(N[C@@H]4CCC[C@@H](O)C4)nc32)CC1` [Example 416, (1S,4s)-4-(8-(2-chloro-6-fluorophenylamino)-2-((1R,3R)-3-hydroxycyclohexylamino)-9H-purin-9-yl)cyclohexanecarboxamide], the IC50 was greater than 1000 nM.
As for `C[C@]1(C(N)=O)CC[C@H](n2c(Nc3c(Cl)cc(C#N)cc3Cl)nc3cnc(NC4CCC(F)(F)CC4)nc32)CC1` [Example 479, (1r,4r)-4-(8-(2,6-dichloro-4-cyanophenylamino)-2-(4,4-difluorocyclohexylamino)-9H-purin-9-yl)-1-methylcyclohexanecarboxamide], the IC50 was greater than 1000 nM.
Consider `N#Cc1cc(F)c(Nc2nc3cnc(N[C@@H]4CCC[C@H](O)C4)nc3n2[C@H]2CC[C@@H](C(N)=O)CC2)c(F)c1` [Example 457, (1S,4s)-4-(8-(4-cyano-2,6-difluorophenylamino)-2-((1R,3S)-3-hydroxycyclohexylamino)-9H-purin-9-yl)cyclohexanecarboxamide], for which the IC50 is greater than 1000 nM.
Take `C[C@H]1COCC[C@H]1Nc1ncc2nc(Nc3c(Cl)cc(C#N)cc3Cl)n([C@H]3CC[C@@H](C(N)=O)CC3)c2n1` [Example 497, (1S,4s)-4-(8-(2,6-dichloro-4-cyanophenylamino)-2-((3R,4R)-3-methyltetrahydro-2H-pyran-4-ylamino)-9H-purin-9-yl)cyclohexanecarboxamide]: the IC50 was less than 250 nM.
Turning to `N#Cc1cc(F)c(Nc2nc3cnc(N[C@@H]4CCOC4)nc3n2[C@H]2CC[C@@H](C(N)=O)CC2)c(F)c1` [Example 529, (1S,4s)-4-(8-(4-cyano-2,6-difluorophenylamino)-2-((R)-tetrahydrofuran-3-ylamino)-9H-purin-9-yl)cyclohexanecarboxamide], the IC50 was greater than 1000 nM.
Turning to `C[C@]1(C(N)=O)CC[C@H](n2c(Nc3c(F)cc(C#N)cc3F)nc3cnc(NC4CCCC4)nc32)CC1` [Example 487, (1r,4r)-4-(8-(4-cyano-2,6-difluorophenylamino)-2-(cyclopentylamino)-9H-purin-9-yl)-1-methylcyclohexanecarboxamide], the IC50 is greater than 1000 nM.
With `NC(=O)[C@H]1CC[C@@H](n2c(Nc3c(F)cc(Cl)cc3Cl)nc3cnc(N[C@@H]4CCC[C@@H](O)C4)nc32)CC1` [Example 422, (1S,4s)-4-(8-(2,4-dichloro-6-fluorophenylamino)-2-((1R,3R)-3-hydroxycyclohexylamino)-9H-purin-9-yl)cyclohexanecarboxamide], the IC50 lay in the range of 500 to 1000 nM.

Still in this assay, the particulars now being: Homo sapiens; Lox-IMVI melanoma cell line, anti-proliferative assay; read-out: Activity (IC50 activity level).
`C[C@]1(C(N)=O)CC[C@@H](n2c(Nc3c(Cl)cc(Cl)cc3Cl)nc3cnc(NC4CCC4)nc32)CC1` [Example 603, (1s,4s)-4-(2-(cyclobutylamino)-8-(2,4,6-trichlorophenylamino)-9H-purin-9-yl)-1-methylcyclohexanecarboxamide]: the IC50 was less than 250 nM.
The same measure, in the same setting: to `N#Cc1cc(F)c(Nc2nc3cnc(N[C@H]4CCC[C@H](O)C4)nc3n2[C@H]2CC[C@@H](C(N)=O)CC2)c(Cl)c1` [Example 689, (1R,4s)-4-(8-(2-chloro-4-cyano-6-fluorophenylamino)-2-((1S,3S)-3-hydroxycyclohexylamino)-9H-purin-9-yl)cyclohexanecarboxamide] belongs 250 to 500 nM.
For the molecule `C[C@]1(C(N)=O)CC[C@@H](n2c(Nc3c(F)cc(F)cc3F)nc3cnc(N[C@H]4CCC[C@H](O)C4)nc32)CC1` [Example 609, (1R,4s)-4-(2-((1S,3S)-3-hydroxycyclohexylamino)-8-(2,4,6-trifluorophenylamino)-9H-purin-9-yl)-1-methylcyclohexanecarboxamide], the IC50 was 250 to 500 nM.
`C[C@]1(C(N)=O)CC[C@@H](n2c(Nc3c(F)cc(F)cc3Cl)nc3cnc(N[C@H]4CCC[C@@H](O)C4)nc32)CC1` [Example 626, (1R,4s)-4-(8-(2-chloro-4,6-difluorophenylamino)-2-((1S,3R)-3-hydroxycyclohexylamino)-9H-purin-9-yl)-1-methylcyclohexanecarboxamide]: the IC50 lay in the range of 500 to 1000 nM.
For `CS(=O)(=O)C1CC(Nc2ncc3nc(Nc4c(F)cc(Cl)cc4F)n([C@H]4CC[C@@H](C(N)=O)CC4)c3n2)C1` (stereo partly drawn) [Example 736, (1s,4s)-4-(8-(4-chloro-2,6-difluorophenylamino)-2-(3-(methylsulfonyl)cyclobutylamino)-9H-purin-9-yl)cyclohexanecarboxamide], the IC50 is greater than 1000 nM.
Consider `N#Cc1cc(Cl)c(Nc2nc3cnc(NC[C@@H]4CCCC[C@H]4O)nc3n2[C@H]2CC[C@@H](C(N)=O)CC2)c(Cl)c1` [Example 665, (1R,4s)-4-(8-(2,6-dichloro-4-cyanophenylamino)-2-(((1S,2R)-2-hydroxycyclohexyl)methylamino)-9H-purin-9-yl)cyclohexanecarboxamide], for which the IC50 is greater than 1000 nM.
With `N#Cc1cc(F)c(Nc2nc3cnc(N[C@H]4CCOC[C@H]4F)nc3n2[C@H]2CC[C@@H](C(N)=O)CC2)c(F)c1` [Example 669, (1R,4s)-4-(8-(4-cyano-2,6-difluorophenylamino)-2-((3S,4S)-3-fluorotetrahydro-2H-pyran-4-ylamino)-9H-purin-9-yl)cyclohexanecarboxamide], the IC50 lay within 500 to 1000 nM.
As to `C[C@]1(C(N)=O)CC[C@@H](n2c(Nc3c(F)cc(F)cc3Cl)nc3cnc(NC4CCC4)nc32)CC1` [Example 604, (1s,4s)-4-(8-(2-chloro-4,6-difluorophenylamino)-2-(cyclobutylamino)-9H-purin-9-yl)-1-methylcyclohexanecarboxamide], the IC50 is less than 250 nM.

The same assay, now with this note: Lox-IMVI melanoma cell line, anti-proliferative assay; read-out: Activity (IC50 activity level).
In the case of `C[C@]1(C(N)=O)CC[C@@H](n2c(Nc3c(Cl)cc(F)cc3Cl)nc3cnc(NC4CCC4)nc32)CC1` [Example 606, (1s,4s)-4-(2-(cyclobutylamino)-8-(2,6-dichloro-4-fluorophenylamino)-9H-purin-9-yl)-1-methylcyclohexanecarboxamide], the IC50 is less than 250 nM.

Source of the values: US11590139B2, “Substituted aminopurine compounds, compositions thereof, and methods of treatment therewith” (Signal Pharmaceuticals, LLC, priority 2014, dated 2023).
